Here are results for one molecule from patent US20220265818A1, “CHIMERIC ANTIGENS FOR TREATING VIRAL INFECTION” (AKSHAYA BIO INC., priority 2019, published 2022).

The subject of this test is HBV. Description: Liver HBV DNA in HBV transgenic mice. Conditions: ADV at 5 mg/kg/day, oral gavage.

In the case of `CC(C)(C)C(=O)OCOP(=O)(COCCn1cnc2c(N)ncnc21)OCOC(=O)C(C)(C)C` [ADV, Adefovir dipivoxil], the “liver HBV DNA” value is “reduced liver HBV DNA”.
